These results are taken from ChEMBL document CHEMBL3102717, “Synthesis and biological evaluation of amino acid methyl ester conjugates of 2-cyano-3,12-dioxooleana-1,9(11)-dien-28-oic acid against the production of nitric oxide (NO)” (2014).

As a reminder, the inhibition is the share of the control response that was lost under treatment.

Assay [1] in a line: Antiproliferative activity against mouse PANC1343 cells assessed as viable cells at 1uM after 72 hrs by MTT assay. The format is functional. Particulars: PANC-1, 72 h, read-out: Activity.
Assay [2] concerns RAW264.7. The assay can be described thus: Antioxidant activity in mouse RAW264.7 cells assessed as inhibition of tBHP-induced ROS production at 100 nM pretreated for 18 hrs before challenge measured after 15 mins by H2DCFA-based flow cytometry. Format: functional, cell-based.
Assay [3] relates to RAW264.7. The assay can be described thus: Antioxidant activity in mouse RAW264.7 cells assessed as inhibition of tBHP-induced ROS production at 10 nM pretreated for 18 hrs before challenge measured after 15 mins by H2DCFA-based flow cytometry. Format: functional. For orientation: In flow cytometry, cells or beads pass a laser one at a time.
Assay [4] has as its system RAW264.7. The assay can be described thus: Inhibition of IFN-gamma-induced nitric oxide production in mouse RAW264.7 cells at 30 nM after 24 hrs by Griess method. Format: functional, cell-based. (In general: The Griess reaction detects nitrite, a stable product of nitric oxide.)
Assay [5] deals with T1, Nuclear factor erythroid 2-related factor 2 (Mus musculus) (UniProt Q60795).
T1 sequence (whole entry): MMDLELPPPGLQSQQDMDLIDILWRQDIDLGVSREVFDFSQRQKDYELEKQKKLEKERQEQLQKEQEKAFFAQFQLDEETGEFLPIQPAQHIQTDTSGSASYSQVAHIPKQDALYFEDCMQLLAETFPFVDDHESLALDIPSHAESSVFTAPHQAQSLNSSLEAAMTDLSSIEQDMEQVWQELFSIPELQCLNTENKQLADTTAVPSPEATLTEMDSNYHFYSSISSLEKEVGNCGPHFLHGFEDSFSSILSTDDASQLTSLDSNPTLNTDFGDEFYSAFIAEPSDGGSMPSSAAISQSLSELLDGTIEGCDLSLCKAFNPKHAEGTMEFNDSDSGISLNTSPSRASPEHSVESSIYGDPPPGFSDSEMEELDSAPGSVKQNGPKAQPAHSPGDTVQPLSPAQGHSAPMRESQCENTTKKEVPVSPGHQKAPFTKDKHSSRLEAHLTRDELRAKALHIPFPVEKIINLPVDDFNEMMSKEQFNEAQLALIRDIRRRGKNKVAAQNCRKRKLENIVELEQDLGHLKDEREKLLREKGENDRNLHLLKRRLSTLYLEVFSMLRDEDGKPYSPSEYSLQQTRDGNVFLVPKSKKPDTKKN
The assay is described as follows: Induction of Nrf2-mediated HO-1 expression in mouse RAW264.7 cells at 30 to 300 nM after 6 hrs by Western blot method. The format is cell-based. On the technique in general: Immunoblotting shows a protein as a band on a membrane.

Each structure is given as a SMILES string. Active and inactive are the calls of the source. The calls are words filed in the database; no cut-off is given here.

Turning to `COC(=O)C(CO)NC(=O)[C@]12CCC(C)(C)C[C@H]1[C@H]1C(=O)C=C3[C@@]4(C)C=C(C#N)C(=O)C(C)(C)[C@@H]4CC[C@@]3(C)[C@]1(C)CC2` (some centres undefined), the viability at 1 µM in assay [1] is < 10%. In addition, the inhibition result in the assay with RAW264.7 [2] and in the assay on RAW264.7 [4] was “Active” each time. For the same molecule, in the assay with RAW264.7 [3], the inhibition at 0.01 µM is 50%. Further, the HO-1 expression induction result in assay [5] was “Active”.

For the molecule `COC(=O)C(C)NC(=O)[C@]12CCC(C)(C)C[C@H]1[C@H]1C(=O)C=C3[C@@]4(C)C=C(C#N)C(=O)C(C)(C)[C@@H]4CC[C@@]3(C)[C@]1(C)CC2` (some centres undefined), the viability at 1 µM in assay [1] was < 10%. Further, the inhibition at 0.01 µM in the assay on RAW264.7 [3] was 50%. Also, in the assay on RAW264.7 [4], the inhibition result is “Active”. The HO-1 expression induction result in assay [5] was “Active”.

Regarding `COC(=O)C(Cc1ccc(O)cc1)NC(=O)[C@]12CCC(C)(C)C[C@H]1[C@H]1C(=O)C=C3[C@@]4(C)C=C(C#N)C(=O)C(C)(C)[C@@H]4CC[C@@]3(C)[C@]1(C)CC2` (some centres undefined), the inhibition result with RAW264.7 [4] was “inactive”.

On to `COC(=O)C(CC(C)C)NC(=O)[C@]12CCC(C)(C)C[C@H]1[C@H]1C(=O)C=C3[C@@]4(C)C=C(C#N)C(=O)C(C)(C)[C@@H]4CC[C@@]3(C)[C@]1(C)CC2` (some centres undefined), for which the inhibition entry with RAW264.7 [4] was “inactive”.

Take `COC(=O)[C@]12CCC(C)(C)C[C@H]1[C@H]1C(=O)C=C3[C@@]4(C)C=C(C#N)C(=O)C(C)(C)[C@@H]4CC[C@@]3(C)[C@]1(C)CC2`: the inhibition entry in the assay on RAW264.7 [2] was “Active”.

For the molecule `COC(=O)CC(NC(=O)[C@]12CCC(C)(C)C[C@H]1[C@H]1C(=O)C=C3[C@@]4(C)C=C(C#N)C(=O)C(C)(C)[C@@H]4CC[C@@]3(C)[C@]1(C)CC2)C(=O)OC` (some centres undefined), the inhibition result in the assay with RAW264.7 [4] is “inactive”.

For the molecule `COC(=O)C(Cc1c[nH]c2ccccc12)NC(=O)[C@]12CCC(C)(C)C[C@H]1[C@H]1C(=O)C=C3[C@@]4(C)C=C(C#N)C(=O)C(C)(C)[C@@H]4CC[C@@]3(C)[C@]1(C)CC2` (some centres undefined), the inhibition result in the assay with RAW264.7 [4] is “inactive”.

Take `COC(=O)C1CCCN1C(=O)[C@]12CCC(C)(C)C[C@H]1[C@H]1C(=O)C=C3[C@@]4(C)C=C(C#N)C(=O)C(C)(C)[C@@H]4CC[C@@]3(C)[C@]1(C)CC2` (some centres undefined): in the assay on RAW264.7 [4], the inhibition result is “inactive”.

With `CCNC(=O)[C@]12CCC(C)(C)C[C@H]1[C@H]1C(=O)C=C3[C@@]4(C)C=C(C#N)C(=O)C(C)(C)[C@@H]4CC[C@@]3(C)[C@]1(C)CC2`, the inhibition entry in the assay with RAW264.7 [4] was “Active”. Moreover, the HO-1 expression induction result in assay [5] is “Active”.

For the molecule `COC(=O)C(Cc1cnc[nH]1)NC(=O)[C@]12CCC(C)(C)C[C@H]1[C@H]1C(=O)C=C3[C@@]4(C)C=C(C#N)C(=O)C(C)(C)[C@@H]4CC[C@@]3(C)[C@]1(C)CC2` (some centres undefined), the inhibition entry with RAW264.7 [4] is “inactive”.

As for `COC(=O)C(NC(=O)[C@]12CCC(C)(C)C[C@H]1[C@H]1C(=O)C=C3[C@@]4(C)C=C(C#N)C(=O)C(C)(C)[C@@H]4CC[C@@]3(C)[C@]1(C)CC2)C(C)C` (some centres undefined), the viability at 1 µM in assay [1] is < 10%. In addition, the inhibition result with RAW264.7 [2] and in the assay with RAW264.7 [4] was “Active” throughout. Also, the inhibition at 0.01 µM in the assay with RAW264.7 [3] came to 50%. In addition, in assay [5], the HO-1 expression induction result was “Active”.

As for `COC(=O)C(Cc1ccccc1)NC(=O)[C@]12CCC(C)(C)C[C@H]1[C@H]1C(=O)C=C3[C@@]4(C)C=C(C#N)C(=O)C(C)(C)[C@@H]4CC[C@@]3(C)[C@]1(C)CC2` (some centres undefined), in the assay on RAW264.7 [4], the inhibition entry is “inactive”.
